Data as given in the CheMixHub viscosity set.
± gives the uncertainty stated by the source.

Test: xn = mol fraction of the nth substance listed
Settings: 101 kPa

CC(=O)N(C)C + CO
viscosity [mPa·s]
Settings | 303.15 K | 308.15 K | 313.15 K | 318.15 K
x1 = 0.0976 | 0.572 ± 0.008 | – | – | –
x1 = 0.1993 | 0.626 ± 0.008 | – | – | –
x1 = 0.2967 | 0.673 ± 0.009 | – | – | –
x1 = 0.3971 | 0.712 ± 0.009 | – | – | –
x1 = 0.4998 | 0.75 ± 0.009 | – | – | –
x1 = 0.5962 | 0.78 ± 0.009 | – | – | –
x1 = 0.648 | 0.795 ± 0.009 | – | – | –
x1 = 0.7762 | 0.829 ± 0.009 | – | – | –
x1 = 0.8699 | 0.846 ± 0.01 | – | – | –
x2 = 0.125 | 0.872 ± 0.011 | 0.795 ± 0.01 | 0.737 ± 0.01 | 0.693 ± 0.009
x2 = 0.232 | 0.856 ± 0.011 | 0.784 ± 0.01 | 0.725 ± 0.009 | 0.675 ± 0.009
x2 = 0.324 | 0.832 ± 0.011 | 0.763 ± 0.01 | 0.709 ± 0.009 | 0.655 ± 0.009
x2 = 0.405 | 0.797 ± 0.01 | 0.733 ± 0.01 | 0.682 ± 0.009 | 0.625 ± 0.008
x2 = 0.644 | 0.697 ± 0.009 | 0.647 ± 0.009 | 0.598 ± 0.008 | 0.539 ± 0.007
x2 = 0.915 | 0.567 ± 0.008 | 0.531 ± 0.007 | 0.492 ± 0.007 | 0.431 ± 0.006
x2 = 0.939 | 0.544 ± 0.007 | 0.507 ± 0.007 | 0.471 ± 0.006 | 0.413 ± 0.006
x2 = 0.961 | 0.529 ± 0.007 | 0.494 ± 0.007 | 0.458 ± 0.006 | 0.398 ± 0.006

C1CCCCCCCCCCC1 + Cc1ccccc1
303 K
Settings | viscosity [mPa·s]
x1 = 0.0186 | 0.5245 ± 0.0045
x2 = 0.8099 | 0.6724 ± 0.0055
x2 = 0.9012 | 0.5699 ± 0.0048
x2 = 0.9426 | 0.5336 ± 0.0045

CCOC(=O)c1cccc(O)c1 + CCCCCOC(C)=O
Settings | viscosity [mPa·s]
298.15 K, x2 = 0.5 | 1.587 ± 0.016

CC1CCCCC1=O (configuration not stated) + CN(C)c1ccccc1
viscosity [mPa·s]
Settings | 303.15 K | 308.15 K
x2 = 0.0798 | 2.088 ± 0.072 | 2.021 ± 0.07
x2 = 0.1302 | 2.007 ± 0.07 | 1.934 ± 0.067
x2 = 0.2014 | 1.899 ± 0.066 | 1.82 ± 0.064
x2 = 0.2705 | 1.801 ± 0.063 | 1.718 ± 0.06
x2 = 0.3456 | 1.704 ± 0.06 | 1.618 ± 0.057
x2 = 0.4121 | 1.625 ± 0.057 | 1.536 ± 0.054
x2 = 0.4952 | 1.536 ± 0.054 | 1.446 ± 0.052
x2 = 0.5625 | 1.471 ± 0.052 | 1.379 ± 0.049
x2 = 0.6325 | 1.41 ± 0.05 | 1.318 ± 0.047
x2 = 0.7025 | 1.355 ± 0.049 | 1.264 ± 0.046
x2 = 0.7652 | 1.31 ± 0.047 | 1.221 ± 0.044
x2 = 0.8312 | 1.268 ± 0.046 | 1.183 ± 0.043
x2 = 0.9025 | 1.226 ± 0.044 | 1.148 ± 0.042
